We go through 17 molecules from patent US20240016901A1, “COMPOSITIONS AND METHODS FOR PREVENTING AND TREATING SARS-COV-2 INFECTION” (priority 2020, published 2024).

Where two headings read alike, the source gives them in different places. Some results are limits rather than exact numbers.

Series [1] concerns SARS-CoV-2. In words: microbe, parasite or virus in culture. Format: cell-based. As to conditions: for IC50: read-out: IC50 against SARS-CoV-2 infection.
In another series the test system is SigmaR1. As to conditions: read-out: SigmaR1 IC50; literature values (Moebius et al. 1997; Diaz et al. 2012); cited from earlier work.
The subject of series [2] is SARS-CoV-2. Conditions: Gordon et al. 2020; cited from earlier work.
A further series concerns SigmaR2. Conditions: literature value (Diaz et al. 2012); cited from earlier work.
The mark [3] stands for this setting: Severe acute respiratory syndrome coronavirus 2, Huh-7.
The mark [4] stands for this setting: Severe acute respiratory syndrome coronavirus 2, Huh-7 cells, MOI 0.2, 10-point two-fold dilution dose response in triplicate.
Where [5] appears, read: Severe acute respiratory syndrome coronavirus 2, Huh-7 cells.

Regarding `COc1cc(Nc2c(C#N)cnc3cc(OCCCN4CCN(C)CC4)c(OC)cc23)c(Cl)cc1Cl` [Bosutinib], in the series on SARS-CoV-2 [1] (setting [3]), the EC50 (in general, the concentration needed to bring the measured effect to its halfway point) turned out to be 28 nM.
Consider `C[C@@](Cc1ccc(O)c(O)c1)(NN)C(=O)O` [Carbidopa], for which, in the series with SARS-CoV-2 [1] (Huh-7 cells), the “exacerbation of SARS-CoV-2 infection” value is listed as “exacerbate SARS-CoV-2 infection”.
For `CC(C)N=c1cc2n(-c3ccc(Cl)cc3)c3ccccc3nc-2cc1Nc1ccc(Cl)cc1` [Clofazamine], the EC50 in the series on SARS-CoV-2 [1] was 105 nM.
As to `C=C1[C@H](CO)[C@@H](O)C[C@@H]1n1cnc2c(=O)[nH]c(N)nc21` [Entecavir], the EC50 with SARS-CoV-2 [1] (setting [4]) came to 201 nM.
In the series on SARS-CoV-2 [1] (setting [4]), `Cc1cnc(Nc2ccc(OCCN3CCCC3)cc2)nc1Nc1cccc(S(=O)(=O)NC(C)(C)C)c1` [Fedratinib] displayed an EC50 of 25 nM. Further, the IC50 (as a rule, the concentration at which inhibition is half-maximal) with SARS-CoV-2 [1] (setting [5]) came to 25 nM.
In the series on SARS-CoV-2 [1] (setting [4]), `CCc1nc(C(N)=O)c(Nc2ccc(N3CCC(N4CCN(C)CC4)CC3)c(OC)c2)nc1NC1CCOCC1` [Gilteritinib] came in with an EC50 of 207 nM.
Still for that read-out and setting: the value for `O=C(NC1CCN(CCCCC2(C(=O)NCC(F)(F)F)c3ccccc3-c3ccccc32)CC1)c1ccccc1-c1ccc(C(F)(F)F)cc1` [Lomitapide] was 1580 nM.
Regarding `CCN(CC)CCNC(=O)c1cc(Cl)c(N)cc1OC` [Metoclopramide], in the series with SARS-CoV-2 [1] (Huh-7 cells), the “antiviral activity against SARS-CoV-2 (in words)” value (shortened to “antiviral activity … (in words)”) was “dose dependent antiviral activity”. Further, the response in the series with SARS-CoV-2 [1] (setting [4]) was half-maximal at 469 nM (EC50).
`O=C(Nc1ccc([N+](=O)[O-])cc1Cl)c1cc(Cl)ccc1O` [Niclosamide] registered an EC50 in the series with SARS-CoV-2 [1] (setting [4]) of 142 nM.
Regarding `CCC(CC)COC(=O)[C@H](C)N[P@](=O)(OC[C@H]1O[C@@](C#N)(c2ccc3c(N)ncnn23)[C@H](O)[C@@H]1O)Oc1ccccc1` [Remdesivir], the EC50 in the series on SARS-CoV-2 [1] (setting [3]) turned out to be 95 nM.
For `Cc1cc(OCCN2CCOCC2)nn1-c1ccc2ccccc2c1` [S1RA, 4-{2-[5-methyl-1-(naphthalen-2-yl)-1H-pyrazol-3-yloxy]ethyl}morpholine], the IC50 was 17 nM in the series on SigmaR1, 222 nM with SARS-CoV-2 [1] (setting [5]) and greater than 1000 nM with SigmaR2. Further, in the series on SARS-CoV-2 [1] (setting [4]), the EC50 worked out at 222 nM. Also, the “antiviral activity in Vero-E6 cells” value in the series with SARS-CoV-2 [2] is “not observed”. In addition, the cell toxicity entry in the series on Huh-7 cells is on record as “limited cell toxicity”.
Take `Nc1nc2nc[nH]c2c(=S)[nH]1` [Thioguanine]: in the series on SARS-CoV-2 [1] (setting [4]), a half-maximal response (EC50) required 232 nM.
`COc1ccc(CCN(C)CCCC(C#N)(c2ccc(OC)c(OC)c2)C(C)C)cc1OC` (stereo not shown) [Verapamil]: the response in the series on SARS-CoV-2 [1] (setting [3]) was half-maximal at 458 nM (EC50).
On to `CC(NC(=O)[C@H](Cc1ccccc1)NC(=O)OCc1ccccc1)C(=O)CF` (stereo partly shown) [Z-FA-FMK], for which the EC50 in the series on SARS-CoV-2 [1] was determined as 107 nM. Also, in the series with SARS-CoV-2 [1] (Huh-7 cells), the “antiviral activity … (in words)” value is reported as “potent antiviral activity”.
For the molecule `CC(C)(C#N)c1cc(Cn2cncn2)cc(C(C)(C)C#N)c1` [anastrozole], the “exacerbation of SARS-CoV-2 infection” value in the series on SARS-CoV-2 [1] (Huh-7 cells) is on record as “exacerbate SARS-CoV-2 infection”.
For the molecule `C[C@@H]1CCN(C(=O)CC#N)C[C@@H]1N(C)c1ncnc2[nH]ccc12` [tofacitinib], the “antiviral activity … (in words)” value with SARS-CoV-2 [1] (Huh-7 cells) is recorded as “the latter was the only one active”.
As to “transferrin: the protein transferrin (Sigma Aldrich, T2036)”, the “anti-SARS-CoV-2 activity, percentage of infected Huh-7 cells” value with SARS-CoV-2 [1] (Huh-7 cells, protein at 2.3 μM, FIG. 6E) was “devoid of any anti-SARS-CoV-2 activity”.
